Source: ChEMBL document CHEMBL1155557, “New quinoline alkaloids from Ruta chalepensis” (2000)
Converted amounts (≈) assume the structure as drawn.

What follows are compounds tested on Mycolicibacterium smegmatis (assay: Antibacterial activity against Mycobacterium smegmatis by microtiter plate assay).
Assay type: functional

Row | Structure (SMILES) | MIC
1 | COc1c2ccccc2nc2occc12 [DICTAMNINE] | 100 µg/mL (≈ 502 µM)
2 | COc1ccc2c(OC)c3ccoc3nc2c1OC [SKIMMIANINE] | 100 µg/mL (≈ 386 µM)

Continued, values first:

Row | MIC | Structure (SMILES)
3 | 100 µg/mL (≈ 278 µM) | Cn1c2ccccc2c(=O)c2c(O)cc3c(c21)CC(C(C)(O)CCl)O3 (configuration not stated) [ISOGRAVACRIDONECHLORINE]
4 | 100 µg/mL (≈ 450 µM) | CC(O)CCCCc1ccc2c(c1)OCO2 (configuration not stated) [MOSKACHAN C]
5 | 50 µg/mL (≈ 218 µM) | COc1ccc2nc3occc3c(OC)c2c1 [PTELEINE]

What follows are compounds tested on Candida albicans (assay: […] activity against Candida albicans by microtiter plate assay).
Assay type: functional

Row | MIC | Structure (SMILES)
6 | 50 µg/mL (≈ 218 µM) | COc1ccc2nc3occc3c(OC)c2c1 [PTELEINE]

The compounds below were run on Bacillus subtilis (assay: Antibacterial activity against Bacillus subtilis by microtiter plate assay).
Assay type: functional

Row | Structure (SMILES) | MIC
7 | COc1c2ccccc2nc2occc12 [DICTAMNINE] | 100 µg/mL (≈ 502 µM)
8 | COc1ccc2c(OC)c3ccoc3nc2c1OC [SKIMMIANINE] | 100 µg/mL (≈ 386 µM)

Results, then the compound that gave them:

Row | MIC | Structure (SMILES)
9 | 100 µg/mL (≈ 278 µM) | Cn1c2ccccc2c(=O)c2c(O)cc3c(c21)CC(C(C)(O)CCl)O3 (configuration not stated) [ISOGRAVACRIDONECHLORINE]
10 | 100 µg/mL (≈ 450 µM) | CC(O)CCCCc1ccc2c(c1)OCO2 (configuration not stated) [MOSKACHAN C]
11 | 50 µg/mL (≈ 218 µM) | COc1ccc2nc3occc3c(OC)c2c1 [PTELEINE]

What follows are compounds tested on Staphylococcus aureus (assay: Antibacterial activity against Staphylococcus aureus by microtiter plate assay).
Assay type: functional

Row | MIC | Structure (SMILES)
12 | 50 µg/mL (≈ 218 µM) | COc1ccc2nc3occc3c(OC)c2c1 [PTELEINE]
